# Experimental data as given in US20250231108A1, “TR[…]” (SUMITOMO CHEMICAL COMPANY, LIMITED, priority 2022, published 2025).
# System: TA1537
# Assay: Ames test (Ames MPF microplate format) without metabolic activation, toxicity to tester assessed by transparency index T from plate image
# Details: for transparency index T: TA1537, no metabolic activation, average of three assessment plates, FIG. 14, T smaller than 1 means high transparency (cells dead)
# Method: A tester (bacterium having amino acid-requiring mutation, for example, Salmonella typhimurium: a TA100 strain, a TA98 strain, a TA1535 strain, or a TA1537 strain, Escherichia coli: a WP2uvrA strain or the like) that is used is inoculated in 60 mL of Nutrient broth medium, and is shaken and cultured at 37° C. for 9 to 10 hours to be proliferated.
# The test substance prepared in the step 2A is dissolved or suspended in an adequate medium, and the resultant solution is diluted by using the medium in staged to prepare concentration series of the test substance solution. In a case where the same test substance is assessed with six concentrations different from each other, six test substance solutions having concentrations different from each other are prepared.
# The medium used in preparation of the test substance solution, the concentration series of the test substance solution, and the solution of the positive control compound (collectively referred to as “test substance solution or the like”) are put into individual wells of a 24-well plate (a plate having 24 wells) by 10 μL.
# 0.175 to 0.7 mL of the tester culture solution (typically at a concentration exceeding 1×10^9 cells/mL) and 6.83 to 6.3 mL of a medium (minimal medium in which a carbon source is added and which is deficient in amino acid) are mixed. The resultant mixture is referred to as a preparation bacterial solution under conditions of the absence of metabolic activation. […]
# Specifically, first, an angle θ1 between the centroid vector V1 and the first reference vector V2 and an angle θ2 between the centroid vector V1 and the second reference vector V3 are compared. In a case where the angle θ1 is equal to or smaller than the angle θ2, a transparency index T is calculated based on an expression (1). In a case where the angle θ2 is larger than the angle θ1, the transparency index T is calculated based on an expression (2). […]
structure (smiles),measurement,setting,value
ClCc1ccc(Cl)cc1 [4-chlorobenzyl chloride],toxicity to the tester (cells),"TA1537, 1.95-2,000 μg/mL in DMSO, no metabolic activation, conclusion from transparency index T",toxic to the tester
same,transparency index T,"section Se6, test substance 500 μg/mL",reduced
same,transparency index T,"section Se7, test substance 2,000 μg/mL",reduced
